Experimental data published in patent publication US7825151B2, “Hexahydro-cyclooctyl pyrazole cannabinoid modulators” (priority 2005, dated 2010).

Legend:
[1] = tested on: oil of mustard induced colitis; assay: Oil of mustard induced colitis model; assay type: in vivo, Male CD-1 mice; settings: 5 mg/kg oral; for % Inh (Macro), % inhibition of colitis: macroscopic score; for % Inh (Micro), % inhibition of colitis: microscopic score
Excerpt: In the distal colon, the oil of mustard colitis model is characterized by a discontinuous pattern of mucosal epithelial damage, submucosal edema, infiltration of inflammatory cells (including macrophages, neutrophils and lymphocytes) into the mucosa and submucosa, increased wet weight of the colon, shrinkage of the colon length, diarrhea and apparent inflammation (see, Kimball E. S., Palmer J. M., D'Andrea M. R., Hornby P. J. and Wade P. R., Acute colitis induction by oil of mustard results in later development of an IBS-like accelerated upper GI transit in mice, Am. J. Physiol. Gastrointest. Liver Physiol., 2005, 288: G 1266-1273).
Male CD-1 mice (Charles River Laboratories, Kingston, N.C.) (9-11 weeks old) and fresh oil of mustard (OM) (allyl isothiocyanate, 98% purity, Sigma-Aldrich St. Louis, Mo.) were used.
The mice (9 per treatment group) were briefly anesthetized with ketamine/xylasine (Sigma, St. Louis, Mo.) and a solution of 0.5% OM in 30% ethanol (50 μL) was administered intracolonically (to a depth of 4 cm) via syringe (equipped with a ball-tipped 22 G needle).
A test compound was orally administered one day prior to colitis induction for assessing a prophylactic regimen or one day post-induction for assessing a therapeutic regimen. A test compound was orally administered daily thereafter. Two days after OM administration, the last test compound dose was administered.
Three days after OM administration, the animals were sacrificed. The colons were resected, examined for signs of inflammation, weighed after removing fecal contents and the length from the aboral end of the cecum to the anus was measured. The fecal contents were examined for signs of diarrhea. The distal colon between the 1st and the 4th centimeter was removed and placed in 10% neutral buffered formalin for histological analysis.
The macroscopic observations of colon inflammation (a measure of colon damage), colon weight and length and stool consistency and appearance were assigned a score and used to evaluate colitis severity.
The four observation scores for each colon were combined, whereby a combined score of 0 represents a normal colon and a combined score of 15 represents a maximally affected colon. Statistical analyses were performed in Graphpad Prism 4.0 using ANOVA.
Histological analyses of tissues consisted of staining paraffin-embedded tissue sections with hematoxylin-eosin dye. The tissues were examined using light microscopy by an investigator who was blinded to the sample groups. […]
The Macroscopic Score and Microscopic Score results for each treatment group in the prophylactic and therapeutic regimens were each combined into a mean score and expressed as % inhibition of colitis (% Inh). […]

human CB1 receptor = target: T1, human CB1 receptor (Homo sapiens, UniProt P21554); assay: Functional cell-based CRE β-gal assay, CB1 (adenylate cyclase activity); settings: single test concentration 1 μM (footnote 2)
T1 construct: expressed in transfected cells; host or cells: SK-N-MC cells, stably transfected with pcDNA3 CB-1 (human)
Excerpt: The CB1 and CB2 receptors are G-protein coupled receptors (GPCR), which influence cell function via the Gi-protein. These receptors modulate the activity of intracellular adenylate cyclase, which in turn produces the intracellular signal messenger cyclic-AMP (cAMP).
At baseline, or during non-ligand bound conditions, these receptors are constitutively active and tonically suppress adenylate cyclase activity. The binding of an agonist causes further receptor activation and produces additional suppression of adenylate cyclase activity. The binding of an inverse agonist inhibits the constitutive activity of the receptors and results in an increase in adenylate cyclase activity.
By monitoring intracellular adenylate cyclase activity, the ability of compounds to act as agonists or inverse agonists can be determined.
Test compounds were evaluated in SK-N-MC cells which, using standard transfection procedures, were stably transfected with human cDNA for pcDNA3-CRE β-gal and pcDNA3 CB1 receptor (human) or pcDNA3 CB2 receptor (human). By expressing CRE β-gal, the cells produced β-galactosidase in response to CRE promoter activation by cAMP. Cells expressing CRE β-gal and either the human CB1 or CB2 receptor will produce less β-galactosidase when treated with a CB1/CB2 agonist and will produce more β-galactosidase when treated with a CB1/CB2 inverse agonist.
The cells were grown in 96-well plates under standard cell culture conditions at 37° C. in a 5% CO2 atmosphere. After 3 days, the media was removed and a test compound in media (wherein the media was supplemented with 2 mM L-glutamine, […] sodium pyruvate, 0.1% low fatty acid FBS (fetal bovine serum) and antibiotics) was added to the cell. The plates were incubated for 30 minutes at 37° C. and the plate cells were then treated with forskolin over a 4-6 hour period, then washed and lysed. The β-galactosidase activity was quantitated using commercially available kit reagents (Promega Corp. Madison, Wis.) and a Vmax Plate Reader (Molecular Devices, Inc).
The change in β-galactosidase activity was determined by setting a vehicle treated cell's activity value at 100% and expressing the β-galactosidase activity measured in a corresponding compound treated cell as a percent of the vehicle treated cell activity.
The EC50 value for functional activity for compounds tested was calculated by linear regression and was obtained from studies in which varying compound concentrations were used. Data provided for certain compounds is represented by percent change (%) in functional activity at a single test concentration: ^(1)10 μM and ^(2)1 μM.

T1 sequence (P21554 whole entry): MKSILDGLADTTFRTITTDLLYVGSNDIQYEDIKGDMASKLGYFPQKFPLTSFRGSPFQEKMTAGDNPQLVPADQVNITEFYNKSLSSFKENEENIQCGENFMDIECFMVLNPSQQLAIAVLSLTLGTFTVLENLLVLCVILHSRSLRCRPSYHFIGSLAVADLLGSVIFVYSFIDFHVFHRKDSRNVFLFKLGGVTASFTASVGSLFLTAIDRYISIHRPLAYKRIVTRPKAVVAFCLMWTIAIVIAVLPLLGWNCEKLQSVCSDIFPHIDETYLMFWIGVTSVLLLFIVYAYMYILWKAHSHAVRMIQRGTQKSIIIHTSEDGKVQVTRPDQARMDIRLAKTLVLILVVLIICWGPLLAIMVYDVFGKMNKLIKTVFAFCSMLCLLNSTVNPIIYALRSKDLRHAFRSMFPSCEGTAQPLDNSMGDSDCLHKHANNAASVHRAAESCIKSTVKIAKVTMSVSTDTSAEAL

For `O=C(NCC12CC3CC(CC(C3)C1)C2)c1nn(C2CCCCC2)c2c1CCCCCC2` [Cpd 2, 1-cyclohexyl-4,5,6,7,8,9-hexahydro-1H-cyclooctapyrazole-3-carboxylic acid (adamantan-1-ylmethyl)-amide], the “% Inh (Macro), % inhibition of colitis” value ([1]; prophylactic regimen) was 42.3 ± 12.6%, the “% Inh (Micro), % inhibition of colitis” value ([1]; prophylactic regimen) was 74.4 ± 3.8% and the “% Inh (Macro), % inhibition of colitis” value ([1]; therapeutic regimen) was 38.7 ± 9.1%. The “% Inh (Micro), % inhibition of colitis” value ([1]; therapeutic regimen) was 66.0 ± 9.8% and the “CB1 receptor percent change in functional activity” value (human CB1 receptor) was “^(2)−71%”.
